The values below come from paper PMC5527305, “Prevention of Ophthalmia Neonatorum Caused by Neisseria gonorrhoeae Using a Fatty Acid-Based Formulation” (mBio, 2017).

Molecules are shown by their SMILES. Converted amounts (≈) assume the structure as drawn.

Type in all cases: cell-based, Neisseria gonorrhoeae
The subject of experiment [1] is gonococcal cells (isolate NCCP 11945). Description: Log reduction in artificial tear fluid with or without calcium chloride. As to conditions: calcium 1 mM; Fig. 2. Here is the method: The antigonococcal properties of the seven selected fatty acids were tested in artificial tear fluid, which contained calcium chloride. The addition of 1 mM lauric acid, tridecanoic acid, or sodium dodecanoate gave no reduction in bacterial cell number after exposure, in contrast to the results seen when they were tested in culture medium (Fig. 2). […] This was most likely due to the negative effect of calcium on the aqueous solubility of these candidates.
Artificial tear fluid was made as described by Mirejovsky and others ([39]) with or without calcium chloride. […] As with the previous log reductions, 10^7 gonococcal cells (isolate NCCP 11945) were suspended in GC broth. The cell suspension was centrifuged to remove the culture medium, and the bacteria were resuspended in the tear fluid. This was then added to the concentrated organic acid candidates. The cells were then enumerated again after 2 min of exposure to estimate any reduction in cell number due to the exposure to the organic acid.

Experiment [2] deals with nine gonococcal isolates (strain NCCP11945 and eight isolates from Public Health England). Put plainly: Minimum bactericidal concentration by log reduction against nine gonococcal isolates. The source says: The seven candidates were further tested against nine gonococcal isolates, including strain NCCP11945 and eight isolates from Public Health England, to find their minimal bactericidal concentration (MBC). This was defined as the lowest concentration tested to give an average 4-log10 reduction in bacterial count after a 2-min exposure. […] Any candidate that killed all gonococcal cells in the cell suspension was given a log reduction score of six.
(§1) The well-characterized N. gonorrhoeae NCCP11945 strain ([36]) was used in the screening stage. Eight isolates obtained from Public Health England, representing circulating isolates from various European locations, were used in the log reduction assays. All isolates were cultured for 24 h prior to testing by plating on GC solid medium (Oxoid Limited, Hampshire, United Kingdom) with Kellogg supplements and incubation at 37°C and 5% CO2 ([37]).
Log reductions were done as described by Bergsson and coworkers ([18]). Briefly, cells were suspended in GC broth (18 g/liter GC base [Oxoid, Limited] with added defined supplements) to an optical density at 520 nm of 0.3, which is approximately equivalent to 10^7 to 10^8 cells per ml ([38]). […] The contents of the tubes were then mixed at room temperature for 2 min and immediately diluted in a 10-fold dilution series to 10^−4. The dilutions were plated by spreading 10 µl on a quarter of a plate; a 100-µl neat solution was also plated. Plates were then incubated at 37°C for 48 h, with all samples plated in duplicate. […] Additional testing at lower concentrations was also done on the eight clinical isolates of European origin.

The subject of experiment [3] is N. gonorrhoeae strain NCCP11945. Description: Growth inhibition screen on GC solid media containing 1 mM candidate. To be noted: 1 mM candidate in GC agar media; Yes = strain NCCP11945 did not grow. As for the experimental part:
To find potential candidates, 37 organic acids, esters, and salts were tested in a two-tiered screening process. These candidates were chosen based on the carbon chain lengths of the fatty acids, the presence or absence of saturation, and modifications to represent a diverse selection of organic acid candidates. The first screen aimed to determine the ability of each compound to inhibit the growth of N. gonorrhoeae strain NCCP11945 at 1 mM in GC solid media (Table 1). This strain was chosen due to its relatively recent isolation, its antibiotic resistance profile, and the availability of a complete genome sequence. Those candidates able to inhibit the growth of N. gonorrhoeae strain NCCP11945 were investigated in a second assay. The second assay tested the ability of each compound to cause at least a 4-log reduction in viable bacteria at 1 mM with a 2-min exposure time (Table 1).
as §1

For the compound `CCCCCCCCCC(=O)OCC(O)CO` (stereo not shown) [Monocaprin], in experiment [1], the “Effect of calcium in artificial tear fluid on antimicrobial effect” value is “unaffected”. Moreover, in experiment [2] (1 mM, 2 min), the “Killing of all gonococcal cells for all isolates” value is recorded as “killed all gonococcal cells for all isolates”. Moreover, the MBC in experiment [2] (lowest concentration giving mean log reduction above 4 from a 2-min exposure) worked out at 500 µM (≈ 123 µg/mL). For the same compound, the Growth inhibition result in experiment [3] is listed as “Yes”.

Broadly, the MBC is the smallest concentration meeting the test's criterion for killing. A higher MBC goes with less potent killing.
